The source of these data is article PMC12632313 (bioRxiv, 2025).

A short description of this data set: Ex-vivo stability in mouse whole blood. Type of data set: in vitro ADME. Conditions: male, C57BL/6, mouse.

What is called half-life is how long it takes for the measured level to halve. As to “H-RPPGFSPFR-OH [Bradykinin (BK), Bradykinin]”, the half-life was 3.9 ± 1.3 min.
